Read-outs that look alike come from different tables or passages of the source. One block for each compound: values may come before it. Positions of bridges follow the written chain, without caps; N, C: chain ends.
What was measured:
[1] = system: N-cadherin mediated processes; details: cited from earlier work
Excerpt: Beside its broad-ranging effects on physiological tissue organization, classical cadherin dysfunction is often correlated with cancer progression and metastasis. Despite Epithelial (E)- to Neural (N-) cadherin switching being considered a molecular hallmark of epithelial to mesenchymal transition of cancer cells, carcinomas and distal metastases often retain E-cadherin expression, as observed for instance in late stage tumors in epithelial ovarian cancer (EOC). In this context, targeting the E-cadherin adhesive interface with small molecules could have a therapeutic a ...

[2] = system: E-cadherin-(Val3)-EC1-EC2; assay: STD-NMR epitope mapping with truncated E-cadherin; assay type: binding, human; details: for STD epitope with truncated E-cadherin: three temperatures, ligand-protein 80:1
Protocol: (§1) STD–NMR and tr-NOESY spectra were acquired in 20 mM phosphate buffer at pH 7.4 (with 150 mM NaCl and 1 mM CaCl2) and 40 μM EC1-EC2 fragments of E-cadherin. In this condition, a monomeric form is predominant in solution [28]. We performed STD-NMR experiments at 283K, 290K and 298K since lowering the temperature helps to […] the rotational correlation time of the receptor and to increase the effective magnetization transfer. […] Furthermore, we also studied the binding modes of the ligands in the presence of the truncated mutant (E-cadherin-(Val3)-EC1-EC2).
(§2) The spectra were acquired with a Bruker Avance 600 MHz instrument at 283, 290 and 298 K, in a 3 mm NMR tube and in the phosphate buffer previously described (200 μL).
(§3) The interaction between ligands and isolated proteins was detected using trNOESY, trROESY and STD experiments. In trNOESY and trROESY experiments, water suppression was achieved by use of an excitation sculpting pulse sequence. In STD experiments water suppression was achieved by using the WATERGATE 3-9-19 pulse sequence.
(§4) The on-resonance irradiation of the protein was kept at -0.05 ppm. Off-resonance irradiation of the protein was applied at 200 ppm, where no protein signals were visible. Selective presaturation of the protein was achieved by a train of Gauss shaped pulses of 49 ms length each. The total length of the saturation train was 2.94 s.
(§5) All the experiments were conducted with the first two domains (EC1-EC2) of wt E–cadherin (Molecular Weight EC1-EC2 construct = 23 KDa) and with the construct lacking the first two residues (E-cadherin-(Val3)-EC1-EC2), with a ligand-protein ratio of 80:1.

E-cadherin-EC1-EC2 = details: mutant EC1-EC2 lacking Asp1-Trp2 (PDB 4ZTE) or intact EC1-EC2 as stated, cited from earlier work
Excerpt: Recently, we reported the first library of small peptidomimetic molecules targeting the strand-swapped dimer interfaces of E- and N-cadherin. These compounds are mimics of the tetrapeptide sequence Asp1-Trp2-Val3-Ile4 (DWVI) of the adhesion arm, modified by replacing the central dipeptide unit (WV) with various scaffolds, all of them bearing a benzyl group that is intended to mimic the indole moiety of Trp2.

[3] = Free ligand NMR conformational analysis (NOESY, VT-NMR); assay type: physicochemical; details: for hydrogen bonding of amide/exchangeable protons: free ligand, VT experiments (compound 1); for NOESY free-state conformation: phosphate buffer, 283 K and 298 K
Protocol: NMR spectroscopy experiments were performed at 283K and 298K on Bruker Avance 400 and 600 MHz spectrometers. All proton and carbon chemical shifts were assigned unambiguously and the assignments are reported in S1–S4 Tables. The NMR experiments were carried out in an aqueous phosphate (20 mM) buffer pH = 7 with 150 mM NaCl and 1 mM CaCl2 in order to observe amide protons with 10% D2O. Two-dimensional experiments (TOCSY, NOESY, ROESY and HSQC) were carried out on samples at a concentration range of 3–6 mM. NOESY experiments were performed with a mixing time of 200 and 700 ms.
In order to obtain clear spectra, the water signal suppression was achieved by using excitation sculpting sequence from Bruker library (DPFGSE, Double Pulse Field Gradient Spin Echo).
The conformations of the peptidomimetics were analysed with respect to hydrogen bonding of amide protons (VT-NMR spectroscopy) and NOE contacts.

wt E-cadherin-EC1-EC2 [4] = assay: KD determination by STD-NMR titration (STD-AF isotherm); assay type: binding, human; details: STD-AF vs ligand concentration, two STD measurements per point; 283 K; protein 0.05 mM, ligand 2.0-16.0 mM
Excerpt: STD-NMR is a consolidated technique based on Overhauser effect that is used to study the interactions between small ligands and macromolecules. The method relies on the selective irradiation of the protein, which allows magnetization to be transferred to the bound ligand (which is in great excess in solution compared to the protein concentration). The saturated ligand is displaced in solution due to the binding equilibrium and the observation of the ligand signals in the NMR spectrum provides an indication of the interaction. […] In fact, the intensity of the STD signal (expressed as absolute STD percentage) reflects the proximity of the ligand to the protein surface. […]
In order to evaluate the interaction strength between E-cadherin and compound 1, we acquired a series of STD spectra at variable ligand concentrations. The STD amplification factor (STD-AF) can be calculated by multiplying the observed STD by the molar excess of the ligand over the protein [20, 21, 25–27], so that its values depend on the fraction of bound protein. […]
Supplementary file pcbi.1007041.s004.tif: S3 Fig Variation of STD-AF versus the increase of ligand 1 concentration in presence of E-cadherin interacting protons and the intensities observed are reported in the graph. We measured the KD value of compound 1 (S3 Fig) and 2 in the presence of E-cadherin by STD (for each point we performed two STD measurements). […]

wt E-cadherin-EC1-EC2 [5] = assay: STD-NMR epitope mapping with wt E-cadherin-EC1-EC2; assay type: binding, human
Excerpt: STD-NMR is a consolidated technique based on Overhauser effect that is used to study the interactions between small ligands and macromolecules. The method relies on the selective irradiation of the protein, which allows magnetization to be transferred to the bound ligand (which is in great excess in solution compared to the protein concentration). The saturated ligand is displaced in solution due to the binding equilibrium and the observation of the ligand signals in the NMR spectrum provides an indication of the interaction. Those ligand protons that are nearest to the protein are more likely to become highly saturated, and therefore show the strongest signal in the mono-dimensional STD spectrum. Owing to the efficiency of the saturation process, the modulation of the ligand signal intensity is used as an epitope-mapping method to describe the target-ligand interactions. In fact, the intensity of the STD signal (expressed as absolute STD percentage) reflects the proximity of the ligand to the protein surface. Therefore, the group epitope mapping obtained provides information about the nature of the chemical moieties of the ligand that are crucial for molecular recognition in the binding site. We also used the STD amplification factors (STD-AF) to derive the dissociation constant (KD) of the ligand-protein complexes. Moreover, we performed tr-NOESY experiments in order to determine the preferred bound conformation of the ligands.
as §1, §2, §3, §4, §5
Since calcium ions are important to rigidify the EC1-EC2 linker region in the monomeric protein and considering that the use of phosphate buffer in the presence of CaCl2 may be critical, due to the limited solubility of CaHPO4, we studied the stability of the protein in phosphate buffer. We monitored the chemical shift variation in ^1H-^15N-HSQC experiment using the ^15N-labeled protein for 24 hours and we can confirm that the protein remains in the correct folding.

wt E-cadherin-EC1-EC2 [6] = assay: tr-NOESY bound conformation; assay type: binding, human; details: presence of E-cadherin
Protocol: as §1, §2, §3

[7] = 283, 290 and 298 K, wt E-cadherin-EC1-EC2
[8] = 283 K, wt E-cadherin-EC1-EC2, ligand-protein 80:1
[9] = 290 K, wt E-cadherin-EC1-EC2, ligand-protein 80:1
[10] = VT-NMR, phosphate 20 mM, pH 7, 10% D2O

Compound: Ac-CHAVC-NH2 (disulfide 1-5 (inferred)) [ADH-1]
reported activity [1]: anti-angiogenic agent able to cause cell apoptosis

Kd (wt E-cadherin-EC1-EC2 [4]): > 20 mM
Compound: CCC(C)C(NC(=O)C1CCC2CCN(Cc3ccccc3)CC(NC(=O)C(N)CC(=O)O)C(=O)N21)C(N)=O.O=C(O)C(F)(F)F (stereo not shown) [compound 2]
STD epitope with truncated E-cadherin ([2]; E-cadherin-(Val3)-EC1-EC2): the only protons that are involved in the interaction are the aromatic ones
X-ray binding / co-crystallization (E-cadherin-EC1-EC2): attempts to co-crystallize both compounds 1 and 2 with intact E-cadherin-EC1-EC2 did not yield results
hydrogen bonding of amide/exchangeable protons [3]: the exchangeable protons are not involved in intra-molecular hydrogen bond formation
NOESY free-state conformation [3]: did not show any significant long range NOE contact typical of a preferred conformation
absolute STD % of aromatic protons (wt E-cadherin-EC1-EC2 [5]; [7]): about 0.2%
absolute STD % of NH19 (wt E-cadherin-EC1-EC2 [5]; 283 K, 40 μM protein, 20 mM phosphate pH 7.4, 150 mM NaCl, 1 mM CaCl2, ligand-protein 80:1): 2.078%
absolute STD % of C-terminal amidic NH2 (wt E-cadherin-EC1-EC2 [5]; [8]): 0.2%
absolute STD % of scaffold H4/H6 (wt E-cadherin-EC1-EC2 [5]; [8]): 0.265%
STD signal of scaffold H4 and H6 (wt E-cadherin-EC1-EC2 [5]; 290 K, wt E-cadherin-EC1-EC2): not detectable
absolute STD % of C-terminal amidic NH2 (wt E-cadherin-EC1-EC2 [5]; [9]): 0.463%
absolute STD % of NH19 (wt E-cadherin-EC1-EC2 [5]; [9]): 1.441%
protons observable in STD spectrum (wt E-cadherin-EC1-EC2 [5]; 298 K, wt E-cadherin-EC1-EC2): only the aromatic protons and the amidic NH2 (0.806%) are observable in the STD spectrum
absolute STD % of C-terminal amidic NH2 (wt E-cadherin-EC1-EC2 [5]; 298 K, wt E-cadherin-EC1-EC2, ligand-protein 80:1): 0.806%
tr-NOESY bound conformation / contacts (wt E-cadherin-EC1-EC2 [6]): no long range interactions were detected

binding affinity to truncated vs wt E-cadherin ([2]; E-cadherin-(Val3)-EC1-EC2 vs wt, 283 K): weaker binding affinity
Kd (wt E-cadherin-EC1-EC2 [4]): > 20 mM
Compound: CCC(C)C(NC(=O)CC1NC(=O)C(CNC(=O)C(N)CC(=O)O)N(Cc2ccccc2)C1=O)C(=O)NC(C)(C)C.O=C(O)C(F)(F)F (stereo not shown) [compound 1]
STD epitope with truncated E-cadherin ([2]; E-cadherin-(Val3)-EC1-EC2): only the aromatic protons are able to interact with the protein
N-terminal Asp amine signal in STD ([2]; lower amount of D2O, E-cadherin-(Val3)-EC1-EC2): the N-terminal amine of the Asp residue of the ligand can be observed
X-ray binding / co-crystallization (E-cadherin-EC1-EC2): binds to a dimeric conformation of E-cadherin, the so-called ‘X-dimer’
X-ray binding / co-crystallization (E-cadherin-EC1-EC2; listed as compounds 1): attempts to co-crystallize both compounds 1 and 2 with intact E-cadherin-EC1-EC2 did not yield results
Δδ/ΔT of NH10 ([3]; VT-NMR, phosphate 20 mM, pH 7, 150 mM NaCl, 1 mM CaCl2, 10% D2O): 4.67 ppb*10^3
Δδ/ΔT of NH1 [3, 10]: 8.33 ppb*10^3
Δδ/ΔT of NHIle [3, 10]: 7.67 ppb*10^3
Δδ/ΔT of NHtBu [3, 10]: 7.33 ppb*10^3
hydrogen bonding of amide/exchangeable protons [3]: NH10 is the only one that could be engaged in an inter-molecular hydrogen bond
NOESY free-state conformation [3]: equilibrium between different conformations
STD interaction of aromatic moiety (wt E-cadherin-EC1-EC2 [5]; [7]): interacts at all the temperatures with similar strength
STD epitope changes (NH10, NH1, Ile NH) (wt E-cadherin-EC1-EC2 [5]; 290 K, wt E-cadherin-EC1-EC2): NH10 STD signal disappears, NH1 decreases in intensity and the signal of the amidic Ile proton appears
STD epitope, NHIle (wt E-cadherin-EC1-EC2 [5]; 298 K, wt E-cadherin-EC1-EC2): NHIle signal replaces those of NH1 and NH10
STD epitope, NH1 and NH10 (wt E-cadherin-EC1-EC2 [5]; lowest temperature (283 K), wt E-cadherin-EC1-EC2): strong interactions at the lowest temperature
STD interaction of Ile backbone NH (wt E-cadherin-EC1-EC2 [5]; temperature dependence, wt E-cadherin-EC1-EC2): seems to interact only at a higher temperature
tr-NOESY bound conformation / contacts (wt E-cadherin-EC1-EC2 [6]): in the bound form compound 1 adopts an extended conformation
